Laboratory results: ChEMBL document CHEMBL1201862, “PubChem BioAssay data set” (2004)
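Results reflect a 48-hour exposure of cells in 96-well plates to compound at five concentrations. GI50 marks 50% less growth.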 Calls of active or inactive are those of the source. No stated cut-off is given here; in the data, active = GI50 up to about 1.1 µM and inactive = higher.

Assays:
Assay in all cases: NCI anticancer screen, dose series, 48 h
SR = system: SR
U-251 = system: U-251
SK-OV-3 = system: SK-OV-3
OVCAR-4 = system: OVCAR-4
SF-295 = system: SF-295
UACC-257 = system: UACC-257
786-0 = system: 786-0
M14 = system: M14
SN12C = system: SN12C
SK-MEL-28 = system: SK-MEL-28
EKVX = system: EKVX
OVCAR-3 = system: OVCAR-3
A498 = system: A498
TK-10 = system: TK-10
NCI-H522 = system: NCI-H522

Measured: GI50

COc1ccccc1NC(=O)C1=C(C)NC(C)=C(C(=O)Nc2ccccc2OC)C1c1ccccc1Cl
inactive: SR 36.6 µM | U-251 78.3 µM | SK-OV-3 > 100 µM | OVCAR-4 > 100 µM | SF-295 > 100 µM | UACC-257 > 100 µM | 786-0 > 100 µM | M14 91 µM | SN12C > 100 µM | SK-MEL-28 > 100 µM | EKVX 53.5 µM | OVCAR-3 > 100 µM | A498 > 100 µM | TK-10 > 100 µM

COc1ccc(N2C(=O)/C(=C(\C)c3cc4ccccc4oc3=O)N=C2c2cc([N+](=O)[O-])ccc2Cl)cc1
inactive: SR 34.4 µM | U-251 48.1 µM | SK-OV-3 57.7 µM | OVCAR-4 38.4 µM | SF-295 17.1 µM | UACC-257 44 µM | NCI-H522 11.5 µM | M14 23.6 µM | SN12C 35 µM | SK-MEL-28 66.4 µM | EKVX > 100 µM | OVCAR-3 73.8 µM | A498 24 µM

CCOC(=O)C1=C(O)C(=O)c2ccccc2C1=O
inactive: SR > 100 µM | U-251 > 100 µM | SK-OV-3 > 100 µM | OVCAR-4 > 100 µM | SF-295 96.6 µM | UACC-257 > 100 µM | 786-0 > 100 µM | NCI-H522 > 100 µM | M14 > 100 µM | SN12C > 100 µM | SK-MEL-28 > 100 µM | EKVX > 100 µM | OVCAR-3 > 100 µM | A498 > 100 µM | TK-10 > 100 µM

Cc1c(C)c2ccc(OC(C)C(=O)O)cc2oc1=O (stereo not drawn)
inactive: SR > 100 µM | U-251 > 100 µM | SK-OV-3 > 100 µM | OVCAR-4 > 100 µM | SF-295 > 100 µM | UACC-257 > 100 µM | 786-0 > 100 µM | NCI-H522 > 100 µM | M14 > 100 µM | SN12C > 100 µM | SK-MEL-28 > 100 µM | EKVX > 100 µM | OVCAR-3 > 100 µM | A498 > 100 µM | TK-10 > 100 µM

Clc1cccc(N2CCN(CCCN3CCc4c([nH]c5ccccc45)C3c3cccnc3)CC2)c1 (stereo not drawn)
inactive: SR 2.29 µM | U-251 10.7 µM | SK-OV-3 14.6 µM | OVCAR-4 6.98 µM | SF-295 6.92 µM | UACC-257 4.34 µM | 786-0 3.29 µM | NCI-H522 11.8 µM | M14 2.01 µM | SN12C 12.8 µM | SK-MEL-28 3.6 µM | EKVX 15.3 µM | OVCAR-3 2.67 µM | A498 10.4 µM | TK-10 > 10 µM

C/N=c1/ss/c(=N\C(SC)=[N+](C)C)n1C.[O-][Cl+3]([O-])([O-])[O-]
inactive: SR > 100 µM | U-251 > 100 µM | SK-OV-3 > 100 µM | SF-295 > 100 µM | UACC-257 > 100 µM | 786-0 > 100 µM | NCI-H522 14.8 µM | M14 > 100 µM | SN12C > 100 µM | SK-MEL-28 > 100 µM | EKVX 80.7 µM | TK-10 > 100 µM

C/C(=N/NS(=O)(=O)c1c(C)cc(C)cc1C)c1cccc[n+]1[O-]
inactive: SR > 100 µM | U-251 > 100 µM | SK-OV-3 > 100 µM | OVCAR-4 > 100 µM | SF-295 > 100 µM | UACC-257 > 100 µM | 786-0 > 100 µM | NCI-H522 83.4 µM | M14 > 100 µM | SN12C > 100 µM | SK-MEL-28 > 100 µM | EKVX > 100 µM | OVCAR-3 > 100 µM | A498 > 100 µM | TK-10 > 100 µM

COc1ccc(/N=N/C(C(=O)c2ccccc2)C(=O)c2ccccc2)cc1
inactive: U-251 15.7 µM | SK-OV-3 45.9 µM | OVCAR-4 30.8 µM | SF-295 21.3 µM | UACC-257 24.5 µM | 786-0 19.9 µM | NCI-H522 16.2 µM | M14 15.3 µM | SN12C 21 µM | SK-MEL-28 26.4 µM | EKVX 21.3 µM | OVCAR-3 17.2 µM | A498 35.7 µM | TK-10 52 µM

C/C=C/C(=O)[C@@H](O)C(C)C
inactive: SR > 100 µM | U-251 > 100 µM | SK-OV-3 > 100 µM | OVCAR-4 > 100 µM | SF-295 > 100 µM | UACC-257 > 100 µM | 786-0 > 100 µM | NCI-H522 > 100 µM | SN12C > 100 µM | SK-MEL-28 > 100 µM | EKVX > 100 µM | OVCAR-3 > 100 µM | TK-10 > 100 µM

O=C1C=CC(=O)C12CCc1ccccc12
inactive: U-251 > 100 µM | SK-OV-3 > 100 µM | OVCAR-4 > 100 µM | SF-295 > 31.6 µM | UACC-257 > 100 µM | 786-0 > 100 µM | NCI-H522 16.7 µM | M14 > 100 µM | SN12C > 100 µM | SK-MEL-28 > 100 µM | EKVX > 100 µM | OVCAR-3 > 100 µM | A498 > 100 µM | TK-10 > 100 µM

Clc1ccc(-c2c(C3=NCCCN3)nnn2-c2ccccc2)cc1
inactive: SR 56.1 µM | U-251 > 100 µM | SK-OV-3 > 100 µM | OVCAR-4 > 100 µM | SF-295 > 100 µM | UACC-257 > 100 µM | 786-0 > 100 µM | NCI-H522 > 100 µM | M14 > 100 µM | SN12C > 100 µM | SK-MEL-28 > 100 µM | EKVX > 100 µM | OVCAR-3 > 100 µM | A498 > 100 µM | TK-10 > 100 µM

CN1COCN/C1=N/C#N
inactive: SK-OV-3 > 100 µM | OVCAR-4 > 100 µM | SF-295 > 100 µM | UACC-257 > 100 µM | NCI-H522 > 100 µM | M14 > 100 µM | SN12C > 100 µM | SK-MEL-28 > 100 µM | EKVX > 100 µM | OVCAR-3 36.1 µM | A498 > 100 µM

C[C@]12CCC(=O)C(O)=C1CCC2=O
inactive: SR > 100 µM | U-251 > 100 µM | SK-OV-3 > 100 µM | OVCAR-4 > 100 µM | SF-295 > 100 µM | UACC-257 > 100 µM | 786-0 > 100 µM | NCI-H522 > 100 µM | M14 > 100 µM | SN12C > 100 µM | SK-MEL-28 > 100 µM | EKVX > 100 µM | OVCAR-3 > 100 µM | A498 > 100 µM | TK-10 > 100 µM

CC(=O)OCCOCNC(=S)N/N=C/c1ccc([N+](=O)[O-])s1
inactive: SR 9.68 µM | U-251 32.1 µM | SK-OV-3 > 100 µM | OVCAR-4 64.1 µM | SF-295 40.4 µM | UACC-257 23.8 µM | 786-0 > 100 µM | NCI-H522 11.2 µM | M14 40 µM | SN12C 36.4 µM | SK-MEL-28 > 100 µM | EKVX 55.5 µM | OVCAR-3 29.3 µM | A498 86.7 µM | TK-10 > 100 µM

O=C1C[S+]([O-])c2ccccc2N1 (stereo not drawn)
inactive: SR 45.5 µM | U-251 > 100 µM | SK-OV-3 > 100 µM | OVCAR-4 > 100 µM | SF-295 > 100 µM | UACC-257 > 100 µM | 786-0 > 100 µM | NCI-H522 > 100 µM | M14 > 100 µM | SN12C > 100 µM | SK-MEL-28 55.1 µM | EKVX > 100 µM | OVCAR-3 > 100 µM | A498 > 100 µM | TK-10 > 100 µM

CCOC(=O)C1=C(Nc2ccc(Cl)cc2Cl)OCC1=O
inactive: SR > 100 µM | U-251 > 100 µM | SK-OV-3 > 100 µM | OVCAR-4 > 100 µM | SF-295 > 100 µM | UACC-257 > 100 µM | 786-0 > 100 µM | NCI-H522 > 100 µM | M14 > 100 µM | SN12C > 100 µM | SK-MEL-28 > 100 µM | OVCAR-3 > 100 µM | TK-10 > 100 µM

CCOC(=N)CC(=O)Nc1cccc(C)c1C
inactive: SR > 100 µM | U-251 > 100 µM | SK-OV-3 > 100 µM | OVCAR-4 > 100 µM | SF-295 > 100 µM | UACC-257 > 100 µM | 786-0 > 100 µM | NCI-H522 > 100 µM | M14 > 100 µM | SN12C > 100 µM | SK-MEL-28 > 100 µM | EKVX > 100 µM | OVCAR-3 > 100 µM | A498 > 100 µM | TK-10 > 100 µM

Cc1cccc(C)c1N1C(=O)C(=O)C(c2nc3ccccc3s2)/C(=N/NC(=O)c2ccccc2O)C1=O (stereo not drawn)
inactive: SR 8.45 µM | U-251 20.6 µM | SK-OV-3 50.7 µM | OVCAR-4 16.8 µM | SF-295 33.3 µM | UACC-257 23.3 µM | 786-0 13.2 µM | NCI-H522 8.77 µM | M14 10.1 µM | SN12C 18.4 µM | SK-MEL-28 28 µM | EKVX 20.6 µM | OVCAR-3 18.7 µM | A498 28.6 µM | TK-10 25.1 µM

CC1CCCC2(O1)OC1CC(=O)OC1C1=C2C(=O)c2ccccc2C1=O (stereo not drawn)
inactive: U-251 18.2 µM | SK-OV-3 16.4 µM | OVCAR-4 1.86 µM | SF-295 17.6 µM | UACC-257 1.81 µM | 786-0 2.14 µM | NCI-H522 1.6 µM | M14 2.79 µM | SN12C 2.18 µM | SK-MEL-28 2.14 µM | EKVX 3.87 µM | OVCAR-3 2.72 µM | A498 17.7 µM | TK-10 9.12 µM
